According to patent US20060263802A1 (priority 2003, published 2006):

How the values were obtained:
Assay type in all cases: binding
[1] = test system: human monoclonal antibody CRJB
[2] = test system: human monoclonal antibody CR57
[3] = test system: human monoclonal antibody CRJA
[4] = test system: human monoclonal antibody CRJB; remark: listed apart in the source
[5] = test system: human monoclonal antibody CR57; remark: listed apart in the source
[6] = test system: human monoclonal antibody CRJA; remark: listed apart in the source

Row | Sequence | Binding of CRJB to linear peptide (PEPSCAN-ELISA signal) [1] | Binding of CR57 to linear peptide (PEPSCAN-ELISA signal) [2] | Binding of CRJA to linear peptide (PEPSCAN-ELISA signal) [3] | Binding of CRJB (10 μg/ml) to looped/cyclic peptide (PEPSCAN-ELISA signal) [4] | Binding of CR57 (10 μg/ml) to looped/cyclic peptide (PEPSCAN-ELISA signal) [5] | Binding of CRJA (10 μg/ml) to looped/cyclic peptide (PEPSCAN-ELISA signal) [6] | Binding of CRJB (10 μg/ml) to looped/cyclic peptide (PEPSCAN-ELISA) [4] | Binding of CR57 (10 μg/ml) to looped/cyclic peptide (PEPSCAN-ELISA) [5] | Binding of CRJA (10 μg/ml) to looped/cyclic peptide (PEPSCAN-ELISA) [6] | Binding of human monoclonal antibody CRJB to linear peptide (PEPSCAN-ELISA signal) [1] | Binding of human monoclonal antibody CR57 to linear peptide (PEPSCAN-ELISA signal) [2] | Binding of human monoclonal antibody CRJA to linear peptide (PEPSCAN-ELISA signal) [3] | Binding of CRJB to looped/cyclic peptide (PEPSCAN-ELISA signal) [4] | Binding of CR57 to looped/cyclic peptide (PEPSCAN-ELISA signal) [5] | Binding of CRJA to looped/cyclic peptide (PEPSCAN-ELISA signal) [6] | binding of antibody CR57 to linear peptide (PEPSCAN OD) [2]
1 | KMNGFTCTGVVTEAE | 104 | 76 | 90 | 71 | 77 | 83 |  |  |  |  |  |  |  |  |  | 
2 | KRASKGSETCGFVDE | 106 | 92 | 97 |  |  |  | 85 | 120 | 101 |  |  |  |  |  |  | 
3 | KREECLDALESIMTT | 113 | 102 | 83 |  |  |  | 64 | 137 | 100 |  |  |  |  |  |  | 
4 | KRKHFRPTPDACRAA | 93 | 65 | 65 | 84 | 94 | 85 |  |  |  |  |  |  |  |  |  | 
5 | KSLKGACKLKLCGVL | 113 | 129 | 91 |  |  |  | 97 | 106 | 113 |  |  |  |  |  |  | 
6 | KSVRTWNEILPSKGC | 125 | 115 | 90 |  |  |  | 104 | 148 | 110 |  |  |  |  |  |  | 
7 | KSVSFRRLSHLRKLV | 124 | 108 | 111 |  |  |  | 97 | 114 | 88 |  |  |  |  |  |  | 
8 | KTLMEADAHYKSVRT | 98 | 91 | 102 |  |  |  | 97 | 125 | 92 |  |  |  |  |  |  | 
9 | KTTKESLVIISPSVA | 112 | 101 | 82 | 75 | 111 | 104 |  |  |  |  |  |  |  |  |  | 
10 | KVGYILAIKMNGFTC | 118 | 78 | 83 | 64 | 96 | 71 |  |  |  |  |  |  |  |  |  | 
11 | KWCPPDQLVNLHDFR | 113 | 89 | 97 |  |  |  | 100 | 118 | 102 |  |  |  |  |  |  | 
12 | LADPSTVFKDGDEAE |  |  |  |  |  |  |  |  |  | 116 | 68 | 86 | 90 | 134 | 90 | 
13 | LAIKMNGFTCTGVVT | 130 | 68 | 112 | 91 | 76 | 79 |  |  |  |  |  |  |  |  |  | 
14 | LCGVLGLRLMDGTWV | 138 | 83 | 111 |  |  |  | 104 | 128 | 106 |  |  |  |  |  |  | 
15 | LDALESIMTTKSVSF | 116 | 97 | 92 |  |  |  | 106 | 108 | 90 |  |  |  |  |  |  | 
16 | LDKLGPWSPIDIHHL | 99 | 55 | 59 | 65 | 93 | 82 |  |  |  |  |  |  |  |  |  | 
17 | LDPYDRSLHSRVFPS | 142 | 99 | 113 | 83 | 88 | 98 |  |  |  |  |  |  |  |  |  | 
18 | LESIMTTKSVSFRRL | 114 | 48 | 94 |  |  |  | 78 | 94 | 91 |  |  |  |  |  |  | 
19 | LESSVIPLVHPLADP | 128 | 90 | 110 |  |  |  | 128 | 120 | 114 |  |  |  |  |  |  | 
20 | LGLRLMDGTWVAMQT | 115 | 102 | 113 |  |  |  | 108 | 92 | 97 |  |  |  |  |  |  | 
21 | LGMSCDIFTNSRGKR | 110 | 76 | 100 | 105 | 102 | 104 |  |  |  |  |  |  |  |  |  | 
22 | LGPDGNVLIPEMQSS | 134 | 100 | 99 |  |  |  | 94 | 150 | 104 |  |  |  |  |  |  | 
23 | LGPWSPIDIHHLSCP | 112 | 69 | 84 | 83 | 88 | 72 |  |  |  |  |  |  |  |  |  | 
24 | LHDFRSDEIEHLVVE | 115 | 93 | 110 |  |  |  | 65 | 40 | 90 |  |  |  |  |  |  | 
25 | LHNPYPDYRWLRTVK | 106 | 79 | 86 | 93 | 99 | 93 |  |  |  |  |  |  |  |  |  | 
26 | LHSRVFPSGKCSGVA | 114 | 78 | 134 | 111 | 110 | 117 |  |  |  |  |  |  |  |  |  | 
27 | LIPEMQSSLLQQHME | 111 | 89 | 107 |  |  |  | 85 | 98 | 91 |  |  |  |  |  |  | 
28 | LKGACKLKLCGVLGL | 90 | 340 | 100 |  |  |  | 76 | 105 | 87 |  |  |  |  |  |  | bound
29 | LKLCGVLGLRLMDGT | 145 | 918 | 100 |  |  |  | 72 | 89 | 90 |  |  |  |  |  |  | bound
